The values that follow come from PubChem BioAssay (NCI).

Some test systems named below: SF-539 CNS; HCT-116 colon; UACC-62 melanoma; SK-OV-3 ovarian; HOP-92 NSCLC; T-47D breast; A498 renal; ACHN renal; MDA-MB-231 breast; MALME-3M melanoma.
Assay in all cases: growth of human tumour cells (NCI), 48 h

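Five compound concentrations were applied to cells in 96-well plates for 48 hours; endpoints were derived by simple linear interpolation of the resulting dose-response curve. GI50 = concentration required for 50% inhibition of growth. TGI: concentration producing complete growth inhibition.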

`CC[C@@H]1[C@@H](C)O[C@@](O)([C@@H](C)[C@H](O)[C@H](C)[C@H]2OC(=O)/C=C/C=C/[C@H](C)[C@@H]([C@@H](C)[C@@H](O)[C@H](C)[C@@]3(O)C[C@@H](O[C@H]4C[C@@H](O)[C@H](O)C(C)O4)[C@H](CC)[C@@H](C)O3)OC(=O)/C=C/C=C/[C@@H]2C)C[C@H]1O[C@@H]1C[C@@H](O)[C@H](O)C(C)O1` (stereo partly drawn): the GI50 was 0.0708 µM in the test with SF-539 CNS; 0.0688 µM in the test with HCT-116 colon; 0.0604 µM in the test on UACC-62 melanoma; 0.072 µM with SK-OV-3 ovarian; 0.0381 µM with HOP-92 NSCLC; 0.0949 µM in the test on T-47D breast. Further, the GI50 is 0.0596 µM with A498 renal, 0.111 µM with ACHN renal, 0.0586 µM in the test with MDA-MB-231 breast and 0.0857 µM in the test on MALME-3M melanoma. Also, the TGI was determined as 0.182 µM with SF-539 CNS; 0.165 µM with HCT-116 colon; 0.152 µM with UACC-62 melanoma; 0.189 µM in the test with SK-OV-3 ovarian; 0.125 µM in the test on HOP-92 NSCLC; 0.34 µM with T-47D breast. The TGI stood at 0.131 µM in the test with A498 renal, 0.411 µM in the test with ACHN renal, 0.139 µM with MDA-MB-231 breast and 0.234 µM with MALME-3M melanoma.

Take `C[C@]12CC[C@@H]3c4cc(OC(F)F)c(O)cc4CC[C@H]3[C@@H]1CC[C@@H]2OS(N)(=O)=O`: the GI50 with SF-539 CNS was 0.455 µM; in the test with HCT-116 colon it was 0.419 µM; in the test with UACC-62 melanoma it was 0.403 µM; in the test with SK-OV-3 ovarian, 2.77 µM; in the test with HOP-92 NSCLC, 6.84 µM; with T-47D breast, 1.02 µM. For the same molecule, the GI50 is 0.321 µM in the test on A498 renal, 0.735 µM in the test with ACHN renal, 2.68 µM in the test on MDA-MB-231 breast and 0.348 µM in the test on MALME-3M melanoma. The TGI in the test with SF-539 CNS stood at 14.4 µM; in the test with HCT-116 colon, 18.9 µM; in the test with UACC-62 melanoma it was 18.2 µM; with SK-OV-3 ovarian, 98 µM; in the test on HOP-92 NSCLC, 79.2 µM; in the test on T-47D breast it was 50.7 µM. Besides, the TGI in the test with A498 renal is 4.35 µM; with ACHN renal it was more than 100 µM; with MDA-MB-231 breast, 41.5 µM; with MALME-3M melanoma it was 27.4 µM.

For the molecule `Nc1nc2c(ncn2C2CCC(CO)O2)c(=O)n1C(=O)c1ccccc1` (stereo not drawn), the TGI in the test with SF-539 CNS, with HCT-116 colon, with UACC-62 melanoma, in the test with SK-OV-3 ovarian, with HOP-92 NSCLC and in the test with T-47D breast was more than 100 µM each time. Moreover, the TGI in the test with A498 renal, in the test on ACHN renal, with MDA-MB-231 breast and in the test on MALME-3M melanoma was more than 100 µM throughout.

With `CC(C)(C)N1CCC1CN` (stereo not drawn), the GI50 in the test on SF-539 CNS, in the test on HCT-116 colon, in the test on UACC-62 melanoma, in the test with SK-OV-3 ovarian, in the test on HOP-92 NSCLC and in the test with T-47D breast was more than 100 µM throughout. Besides, the GI50 in the test on A498 renal, with ACHN renal, in the test on MDA-MB-231 breast and in the test on MALME-3M melanoma was more than 100 µM each time. The TGI in the test with SF-539 CNS, with HCT-116 colon, in the test with UACC-62 melanoma, in the test on SK-OV-3 ovarian, with HOP-92 NSCLC and in the test with T-47D breast was more than 100 µM each time. The TGI in the test on A498 renal, in the test with ACHN renal, in the test with MDA-MB-231 breast and in the test with MALME-3M melanoma was more than 100 µM throughout.

For `O=C1C(Cl)=C(Sc2nnc3c4ccccc4c4ccccc4c3n2)C(=O)c2ccccc21`, the TGI in the test on SF-539 CNS came to 32.4 µM; in the test with HCT-116 colon it was 33.3 µM; in the test with UACC-62 melanoma it was 29.8 µM; in the test with SK-OV-3 ovarian it was 55.3 µM; with HOP-92 NSCLC it was 33.2 µM; in the test with T-47D breast it was 19.2 µM. The TGI in the test on A498 renal is 37.2 µM; in the test on ACHN renal, 29.5 µM; in the test with MDA-MB-231 breast it was 17 µM; in the test with MALME-3M melanoma it was 11.6 µM.

Regarding `COc1cc2nccc(Oc3ccc(NC(=O)NC4CC4)c(Cl)c3)c2cc1C(N)=O`, the GI50 was 0.536 µM in the test on SF-539 CNS; 25.4 µM with HCT-116 colon; 19.1 µM in the test on UACC-62 melanoma; 17.5 µM with SK-OV-3 ovarian; 7.06 µM in the test on HOP-92 NSCLC; 14.4 µM in the test with T-47D breast. For the same molecule, the GI50 is 4.63 µM with A498 renal, 9.17 µM in the test with ACHN renal, 11.5 µM with MDA-MB-231 breast and 40.7 µM with MALME-3M melanoma. The TGI was 40 µM with SF-539 CNS; more than 100 µM with HCT-116 colon; more than 89.2 µM with UACC-62 melanoma; 94.6 µM in the test with SK-OV-3 ovarian; 38.3 µM with HOP-92 NSCLC; more than 100 µM in the test with T-47D breast. Moreover, the TGI with A498 renal was 51.1 µM; in the test on ACHN renal, more than 100 µM; in the test with MDA-MB-231 breast, 43.8 µM; with MALME-3M melanoma, more than 100 µM.

For `C=CCC(N[C@@H](CO)c1ccccc1)c1cn(Cc2ccccc2Cl)c(=O)n(Cc2ccccc2Cl)c1=O` (stereo partly drawn), the GI50 was more than 100 µM in the test on SF-539 CNS; 87.3 µM in the test with HCT-116 colon; 82.2 µM with UACC-62 melanoma; more than 100 µM in the test on SK-OV-3 ovarian; more than 100 µM in the test on HOP-92 NSCLC; more than 100 µM in the test with T-47D breast. Moreover, the GI50 was 13.5 µM in the test on A498 renal, more than 100 µM in the test on ACHN renal, 78 µM in the test with MDA-MB-231 breast and more than 100 µM in the test with MALME-3M melanoma. Also, the TGI with SF-539 CNS, in the test with HCT-116 colon, in the test with UACC-62 melanoma, with SK-OV-3 ovarian, with HOP-92 NSCLC and with T-47D breast was more than 100 µM in each case. The TGI in the test on A498 renal, in the test with ACHN renal, in the test on MDA-MB-231 breast and in the test with MALME-3M melanoma was more than 100 µM each time.

As to `NCCCNc1nc2ccccc2c2c(=O)c3cc(F)cc(F)c3sc12`, the GI50 was 1.77 µM in the test on SF-539 CNS; 1.67 µM in the test with HCT-116 colon; 1.81 µM with UACC-62 melanoma; 1.65 µM in the test with HOP-92 NSCLC; 16.2 µM in the test on T-47D breast; 1.38 µM in the test on A498 renal. The results for the GI50 with ACHN renal, with MDA-MB-231 breast and in the test with MALME-3M melanoma were 1.65 µM, 1.49 µM and 1.62 µM, respectively. Also, the TGI was 3.24 µM in the test with SF-539 CNS; 3.28 µM with HCT-116 colon; 3.48 µM in the test on UACC-62 melanoma; 12.6 µM in the test on HOP-92 NSCLC; 55.4 µM with T-47D breast; 2.93 µM in the test on A498 renal. The TGI was determined as 3.06 µM in the test with ACHN renal, 3.02 µM with MDA-MB-231 breast and 3.21 µM with MALME-3M melanoma.
